From PubChem BioAssay AID2060912 (Molecular Pharmacology Branch, DTP, NCI, 2025)

Test system: HUVEC/MSC spheroids viability
Test: Human HUVEC/MSC cell line growth inhibition [KRAS2];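 on viability, T/C: percent of DMSO vehicle control luminescence so 100% = untreated viability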
Conditions: for IC50: curve of first compound; for viability, T/C: stronger effect = lower value
From the text: Multicellular complex tumor spheroid response to RAS pathway inhibitors in combination with a targeted agents in patient-derived cell lines with oncogenic KRAS variants from multiple cancer types
A high-throughput screen of multi-cell type tumor spheroids was designed to identify active combinations of targeted small molecules and KRAS pathway inhibitors. Complex spheroids include a stromal component modeled by human endothelial cells (HUVEC) and fibroblasts modeled by human mesenchymal stem cells (MSCs). The concentration ranges selected for each drug and investigational agent were based upon clinically achievable concentrations if the clinical Cmax of the agent was known. * [This particular assayID is a followup dataset requested by reviewers of the manuscript. It is a test of the HUVEC and MSC without the tumor cells, and was conducted using different drug plates and a different plate layout.]
Compounds. The drugs and investigational agents: BI-3406 (NSC825286), BAY-293 (NSC824723), batoprotafib (TNO155; NSC825523), sotorasib (AMG 510; NSC818433), MRTX1257 (NSC819558), elimusertib (BAY 1895344; NSC800525), molibresib (GSK525762; NSC774829), temuterkib (LY3214996; NSC803410), venetoclax (NSC766270), alisertib (NSC759677), olaparib (NSC753686), talazoparib (NSC767125), erdafitinib (NSC781556), ipatasertib (NSC767898), cabozantinib (NSC761068), nintedanib (NSC756659), abemaciclib (NSC768073), docetaxel (NSC628503), trametinib (NSC758246), and sapanisertib (NSC764658) were obtained from the National Cancer Institute (NCI) Developmental Therapeutics Program Chemical Repository. The FDA-approved anticancer drug set is available from the Developmental Therapeutics Program. […] The stock solutions were prepared in dimethyl sulfoxide (DMSO, Sigma-Aldrich, St. Louis, MO, cat. D2650) at 800-fold the tested concentration and stored at -70 degrees C prior to their use. All drugs and investigational agents were tested over a range starting from a high concentration at or near the clinical Cmax and decreasing in half-log increments. If the clinical Cmax for an agent had not been determined, the highest concentration tested was 10 microM.
Cell Culture. All cells were maintained in an incubator at 37 degrees C and 5% CO2 with 95% humidity. The PDC lines were cultured according to standard operating procedures established by the NCI PDMR (https://pdmr.cancer.gov/sops/default.htm). Briefly, all PDCs were thawed and cultured in Matrigel-coated flasks prepared with a working solution of 1X Ham's F-12 nutrient mix, without supplementation (Invitrogen, Waltham, MA, cat. 11765054), 100 U/mL penicillin-streptomycin (Invitrogen, cat. 15140122), and 2.5% Matrigel (Corning Inc., Corning, NY, cat. 354248) for the first three passages. All PDCs were cultured in complete DMEM/F-12 media containing advanced DMEM/F-12 (Invitrogen, cat. 12634028), 4.9% defined fetal bovine serum, heat inactivated (HyClone Laboratories Inc., Logan, UT, cat. SH30070.03HI), 389 ng/mL hydrocortisone (Sigma-Aldrich, cat. H4001), 9.7 ng/mL human EGF recombinant protein (Invitrogen, cat. PHG0313), 23.4 microg/mL adenine (Sigma-Aldrich, cat. A2786), 97.3 U/mL penicillin-streptomycin (Invitrogen, cat. 15140122), 1.9 mM L-glutamine (Invitrogen, cat. 25030081), and 9.7 microM Y-27632 dihydrochloride (Tocris Bioscience, Bristol, United Kingdom, cat. 1254). The PDCs were cultured in complete DMEM/F12 media without 9.7 microM Y-27632 dihydrochloride for at least two passages prior to the screen. The established cell line HOP-62 was cultured in RPMI 1640 medium, HEPES (Invitrogen, cat. 22400105) with 10% defined fetal bovine serum (HyClone Laboratories Inc., cat. SH30070.03) and 2 mM L-glutamine (Invitrogen, cat. 25030081). The pooled donor HUVEC were cultured in endothelial cell growth medium 2 (PromoCell, Heidelberg, Germany, cat. C-22011) and the hMSC were cultured in mesenchymal stem cell growth medium 2 (PromoCell, cat. C-28009). […]

## CC(=O)OC12COC1CC(O)C1(C)C(=O)C(O)C3=C(C)C(OC(=O)C(O)C(NC(=O)OC(C)(C)C)c4ccccc4)CC(O)(C(OC(=O)c4ccccc4)C21)C3(C)C (configuration not stated) + C=CC(=O)N1CCN(c2nc(=O)n(-c3c(C)ccnc3C(C)C)c3nc(-c4c(O)cccc4F)c(F)cc23)C(C)C1
Second compound 0.0316 µM
  IC50: > 3 µM
Second compound 0.1 µM
  IC50: > 3 µM
Second compound 0.316 µM
  IC50: > 3 µM
Second compound 1 µM
  IC50: > 3 µM
Second compound 3.16 µM
  IC50: > 3 µM
Second compound 10 µM
  IC50: > 3 µM
Second compound 0.0316 µM, first compound 0.00949 µM
  viability, T/C: 57.6%
Second compound 0.0316 µM, first compound 0.03 µM
  viability, T/C: 67.8%
Second compound 0.0316 µM, first compound 0.0949 µM
  viability, T/C: 47.2%
Second compound 0.0316 µM, first compound 0.3 µM
  viability, T/C: 41.4%
Second compound 0.0316 µM, first compound 0.949 µM
  viability, T/C: 63%
Second compound 0.0316 µM, first compound 3 µM
  viability, T/C: 55.2%
Second compound 0.1 µM, first compound 0.00949 µM
  viability, T/C: 65.5%
Second compound 0.1 µM, first compound 0.03 µM
  viability, T/C: 52.8%
Second compound 0.1 µM, first compound 0.0949 µM
  viability, T/C: 57.4%
Second compound 0.1 µM, first compound 0.3 µM
  viability, T/C: 54.1%
Second compound 0.1 µM, first compound 0.949 µM
  viability, T/C: 57.3%
Second compound 0.1 µM, first compound 3 µM
  viability, T/C: 63.7%
Second compound 0.316 µM, first compound 0.00949 µM
  viability, T/C: 54.5%
Second compound 0.316 µM, first compound 0.03 µM
  viability, T/C: 58.9%
Second compound 0.316 µM, first compound 0.0949 µM
  viability, T/C: 61.6%
Second compound 0.316 µM, first compound 0.3 µM
  viability, T/C: 57.5%
Second compound 0.316 µM, first compound 0.949 µM
  viability, T/C: 65%
Second compound 0.316 µM, first compound 3 µM
  viability, T/C: 70.3%
Second compound 1 µM, first compound 0.00949 µM
  viability, T/C: 57.1%
Second compound 1 µM, first compound 0.03 µM
  viability, T/C: 61.4%
Second compound 1 µM, first compound 0.0949 µM
  viability, T/C: 59.2%
Second compound 1 µM, first compound 0.3 µM
  viability, T/C: 59.8%
Second compound 1 µM, first compound 0.949 µM
  viability, T/C: 62.9%
Second compound 1 µM, first compound 3 µM
  viability, T/C: 67.9%
Second compound 3.16 µM, first compound 0.00949 µM
  viability, T/C: 66%
Second compound 3.16 µM, first compound 0.03 µM
  viability, T/C: 82.4%
Second compound 3.16 µM, first compound 0.0949 µM
  viability, T/C: 64.8%
Second compound 3.16 µM, first compound 0.3 µM
  viability, T/C: 84.4%
Second compound 3.16 µM, first compound 0.949 µM
  viability, T/C: 83.4%
Second compound 3.16 µM, first compound 3 µM
  viability, T/C: 101%
Second compound 10 µM, first compound 0.00949 µM
  viability, T/C: 100%
Second compound 10 µM, first compound 0.03 µM
  viability, T/C: 113%
Second compound 10 µM, first compound 0.0949 µM
  viability, T/C: 122%
Second compound 10 µM, first compound 0.3 µM
  viability, T/C: 113%
Second compound 10 µM, first compound 0.949 µM
  viability, T/C: 111%
Second compound 10 µM, first compound 3 µM
  viability, T/C: 124%
